Experimental data taken from patent US20140235568A1, “GEMCITABINE AMIDE DERIVATIVE AND PREPARATION METHOD AND USE THEREOF” (priority 2011, published 2014).
Values after ≈ are worked out from the molar mass of the structure shown. Read-outs that look alike come from different tables or passages of the source.

Legend:
[1] = test system: A549 (human lung cancer cells); test: MTT assay, in vitro inhibition of proliferation of human tumor cells; format: cell-based; conditions: for IC50: Homo sapiens, A549, 72 h; for A549 100 μg/ml IC %: inhibition at 100 μg/ml, 72 h
Method: (§1) The tumor cell lines used in the experiments were as follows: A549 (human lung cancer cells), HCT116 (human colon cancer cells), HepG2 (human hepatoma cells), ZR-75-30 (human breast cancer cell), purchased from Shanghai Institute of Pharmaceutical Industry.
(§2) The sample was dissloved in DMSO (Merck), and PBS was added to prepare a 1000 μg/mL of solution or a uniform suspension. And then, DMSO-containing PBS (−) was added to dilute the solution or suspension. The positive control medicaments were gemcitabine (GEM) and LY2334737 developed by Eli Lilly and Company.
(§3) MTT assay: 100 μL cell suspension (4˜5×10^4 cells/mL) was added into each well of 96-well plate, and cultured in 37° C., 5% CO2 incubator. After 24 h, the sample solution was added in duplicate, 10 μL/well, and incubated at 37° C., 5% CO2 for 72 h. 20 μL MTT solution (5 mg/mL) was added into each well. After 4 h, a dissolving solution was added, 100 μL/well. The plate was placed into the incubator. After dissolved, OD value at 570 nm was measured on MK-2 automatic microplate reader.

[2] = test system: ZR-75-30 (human breast cancer cell); test: as above; format: cell-based; conditions: for IC50: Homo sapiens, ZR-75-30, 72 h; for ZR-75-30 100 μg/ml IC %: inhibition at 100 μg/ml, 72 h
Method: as §1, §2, §3

[3] = test system: HepG2 (human hepatoma cells); test: as above; format: cell-based; conditions: for IC50: Homo sapiens, HepG2, 72 h; for HepG2 100 μg/ml IC %: inhibition at 100 μg/ml, 72 h
Method: as §1, §2, §3

[4] = test system: HCT116 (human colon cancer cells); test: as above; format: cell-based; conditions: for IC50: Homo sapiens, HCT-116, 72 h; for HCT116 100 μg/ml IC %: inhibition at 100 μg/ml, 72 h
Method: as §1, §2, §3

[5] = test system: human colon cancer cells HCT116 xenografts; test: In vivo antitumor activity test, xenografts in nude mice; conditions: dosed 0.1-10 mg/kg body weight, better than LY2334737 at the same dose
Method: Some of the compounds were tested in vivo using human colon cancer cells HCT116 xenografts in nude mice according to a literature method (Wei Hong, Medical Laboratory Animal Science, Sichuan Science and Technology Press, 2nd edition, Chengdu, 2001, 595-596).

NCI 60 human tumor cells = test: NCI in vitro cytotoxic activity screening; format: cell-based; conditions: for GI50: Homo sapiens, derived from MGM; for MGM: NCI 60 human tumor cells, GI50 in M (log)
Method: The cytotoxic activities of Compounds SYN-141 and SYN-165 were assayed in NCI systemactically.

hepatitis C virus = conditions: patients, minimum dose, within a few days (1-2 days in some cases); cited from earlier work

SMILES | IC50 [1] | A549 100 μg/ml IC % [1] | IC50 [2] | ZR-75-30 100 μg/ml IC % [2] | IC50 [3] | HepG2 100 μg/ml IC % [3] | IC50 [4] | HCT116 100 μg/ml IC % [4] | melting point | in vivo antitumor activity [5] | GI50 (NCI 60 human tumor cells; read-out: total average GI50 against 60 human tumor cell lines) | MGM (NCI 60 human tumor cells) | GI50 (NCI 60 human tumor cells; read-out: total average GI50 against 60 human tumor cells) | reduction of hepatitis C viral load (hepatitis C virus)
CCCC(=O)Nc1ccn([C@@H]2O[C@H](CO)C(O)C2(F)F)c(=O)n1 (stereo partly drawn) [SYN-140, N^4-n-butyryl gemcitabine] | 4.26 µg/mL (≈ 12.8 µM) | 64.84% | 3.01 µg/mL (≈ 9.03 µM) | 89.52% | 84.4 µg/mL (≈ 253 µM) | 50.42% | 0.395 µg/mL (≈ 1.19 µM) | 87.79% | 198 °C | potent in vivo antitumor activity |  |  |  | 
O=C(CCCc1ccccc1)Nc1ccn([C@@H]2O[C@H](CO)C(O)C2(F)F)c(=O)n1 (stereo partly drawn) [SYN-141, N^4-(4-phenyl)butyryl Gemcitabine] | 5.6 µg/mL (≈ 13.7 µM) | 56.38% | 4.7 µg/mL (≈ 11.5 µM) | 91.63% | 7.2 µg/mL (≈ 17.6 µM) | 62.48% | 0.269 µg/mL (≈ 0.657 µM) | 92.46% | 111 °C | potent in vivo antitumor activity | 0.62 µM | −6.21 |  | 
CCCCC(=O)Nc1ccn([C@@H]2O[C@H](CO)C(O)C2(F)F)c(=O)n1 (stereo partly drawn) [SYN-147, N^4-n-valeryl Gemcitabine Gemcitabine] | 7.82 µg/mL (≈ 22.5 µM) | 58.09% | 1.13 µg/mL (≈ 3.25 µM) | 90.22% | 0.246 µg/mL (≈ 0.708 µM) | 59.49% | 0.193 µg/mL (≈ 0.556 µM) | 88.14% | 184 °C | potent in vivo antitumor activity |  |  |  | 
CCCCCCCC(=O)Nc1ccn([C@@H]2O[C@H](CO)C(O)C2(F)F)c(=O)n1 (stereo partly drawn) [SYN-165, N^4-n-octanoyl Gemcitabine] | 42.5 µg/mL (≈ 109 µM) | 55.82% | 0.135 µg/mL (≈ 0.347 µM) | 96.30% | 0.123 µg/mL (≈ 0.316 µM) | 77.90% | 0.154 µg/mL (≈ 0.395 µM) | 99.01% | 139 °C | potent in vivo antitumor activity |  | −7.12 | 0.0758 µM | 
Nc1ccn([C@@H]2O[C@H](CO)[C@@H](O)C2(F)F)c(=O)n1 [GEM, gemcitabine] | 3.74 µg/mL (≈ 14.2 µM) | 57.57% | 0.454 µg/mL (≈ 1.72 µM) | 96.60% | 0.263 µg/mL (≈ 0.999 µM) | 53.34% | 0.0237 µg/mL (≈ 0.09 µM) | 78.07% |  |  |  |  |  | ≥ 2 logarithmic unit
CCCC(CCC)C(=O)Nc1ccn([C@@H]2O[C@H](CO)[C@@H](O)C2(F)F)c(=O)n1 [LY-2334737, N4-valproyl gemcitabine, reference compound] | 18.3 µg/mL (≈ 46.9 µM) | 60.05% | 29.3 µg/mL (≈ 75.3 µM) | 78.36% | 1.78 µg/mL (≈ 4.57 µM) | 67.52% | 3.81 µg/mL (≈ 9.78 µM) | 84.51% |  |  |  |  |  | 
